Results reported in patent US20230192653A1, “Novel Therapeutic Methods” (GUANGZHOU MAXINOVEL PHARMACEUTICALS CO., LTD., priority 2020, published 2023).
Where “and” joins values, the source holds several entries; their conditions need not be identical. Equal entries are not always repeated. Entries after “also recorded” stand apart in the source; their conditions may differ.

Columns and labels:
Assay type in all cases: in vivo, human
[1] = test system: Liver Cancers (patient tumor cells in mini-PDX capsules); assay: Mini-PDX assay, liver cancers; conditions: Compound 1 12 mg per kg oral once daily 7 days, effective = P ≤ 0.05, per patient sample
Procedure: (§1) A mini patient-derived xenograft (mini-PDX) is used to assess the sensitivity of different tumors to treatment with Compound 1 (MAX-40279). In this experiment, clinical tumor samples from patients are treated in the mini-PDX by oral administration of Compound 1, and FGFR1OP2 expression level in those samples is analyzed.
(§2) Tumor tissue acquisition is approved by the ethics committees of each participating hospital and agreed to by each patient via written informed consent and is carried out according to state and institutional regulations on experimental use of human tissues. The patient samples are corrected if tumors >500 mm^3 in size with a necrotic area <30% are used. […]
(§3) Thereafter, the implanted capsules are removed, and tumor cell proliferation is evaluated using the CellTiter Glo Luminescent Cell Viability Assay kit (G7571, Promega, Madison, Wis., US) as instructed by the manufacturer. Luminescence is measured in terms of relative luminance unit (RLU) using a spectrophotometer (SpectraMax M3, Molecular Devices, Sunnyvale, Calif., US). Tumor cell growth inhibition (TCGI) (%) is calculated using the formula: TCGI %=(1−[mean RLU of the treatment group on day 7-mean RLU on day 0]/[Mean RLU of vehicle group on day 7−Mean RLU on day 0])×100%, Each experiment is done in sextuplicate and mean values are reported. […]

[2] = test system: Cholangiocarcinoma (patient tumor cells in mini-PDX capsules); assay: Mini-PDX assay, cholangiocarcinoma; conditions: Compound 1 12 mg per kg oral once daily 7 days, effective = P ≤ 0.05, per patient sample
Procedure: as §1, §2, §3

[3] = test system: Gastric Cancer (patient tumor cells in mini-PDX capsules); assay: Mini-PDX assay, gastric cancer; conditions: Compound 1 12 mg per kg oral once daily 7 days, effective = P ≤ 0.05, per patient sample
Procedure: as §1, §2, §3

cancer patients = assay: Clinical efficacy of Compound 1 in cancer patients; set-up: key to CT Observation: Stable Disease, or SD, signifies that there has been no significant decrease or increase in the size of target lesions (including tumors), based on the smallest sum lesion diameter (LD); Progressive Disease, or PD, signifies that there has been an increase of at least 20% in the sum of the LD of targeted lesions; conditions: for CT Observation: per patient
Procedure: Stable Disease, or SD, signifies that there has been no significant decrease or increase in the size of target lesions (including tumors), based on the smallest sum lesion diameter (LD). Progressive Disease, or PD, signifies that there has been an increase of at least 20% in the sum of the LD of targeted lesions.
Patients are treated with Compound 1, given orally at the indicated daily dose. […] Although patients were not selected for high expression of FGFR1OP2 and FGFR1, the clinical response appears related to the expression levels of FGFR1OP2 and FGFR1. Squamous tumors seem particularly susceptible, as both patients with squamous tumors are SDs. Two of the three patients with SD are in 100 mg/day group, one of whom has 20% tumor reduction observed at the second and the fourth cycle by CT examination and is still under treatment. Adverse events are mild, so further dose escalation above 120 mg/day can be considered.

[4] = test system: clinical tumor samples from patients; assay: Mini-PDX assay, all tumor samples from patients
Procedure: FIG. 1 is the RLU (ATP Enzyme activity) of cells from mini-PDX vehicles. The cancer cells derived from patients were embedded in the mini-PDX vehicles and implanted in the mice for cultivating 7 days. The mice were treated with MAX-40279(12mpk, PO, BID) or not. After 7 days, cells in mini-PDX vehicles were collected and ATP Enzyme activity was used to represent the cell viability.
A mini patient-derived xenograft (mini-PDX) is used to assess the sensitivity of different tumors to treatment with Compound 1 (MAX-40279). In this experiment, clinical tumor samples from patients are treated in the mini-PDX by oral administration of Compound 1, and FGFR1OP2 expression level in those samples is analyzed. […]
as §3

[5] = test system: Pancreatic Cancers (patient tumor cells in mini-PDX capsules); assay: Mini-PDX assay, pancreatic cancers; conditions: Compound 1 12 mg per kg oral once daily 7 days, effective = P ≤ 0.05, per patient sample
Procedure: as §1, §2, §3

With `COc1cc(F)ccc1-c1c(C)sc2cnc(Nc3cnn(C4CCNCC4)c3)nc12` [Compound 1] the “Efficacy (P ≤ 0.05)” value [1] was “Non-effective; also recorded: effective”, the “Efficacy (P ≤ 0.05)” value [2] was “Non-effective; also recorded: effective” and the “Efficacy (P ≤ 0.05)” value [3] was “Non-effective; also recorded: effective”. The “CT Observation” value (cancer patients; 40 mg oral daily dose) was “SD”, the “CT Observation” value (cancer patients; 70 mg oral daily dose) was “PD (Progressive Disease, or PD, signifies that there has been an increase of at least 20% in the sum of the LD of targeted lesions)” and the “tumor reduction by CT examination” value (cancer patients; 100 mg oral daily dose, CRC, observed at second and fourth cycle) was 20%. The “CT Observation” value (cancer patients; 100 mg oral daily dose) was “SD (2×) and PD (Progressive Disease, or PD, signifies that there has been an increase of at least 20% in the sum of the LD of targeted lesions)”, the Adverse events (cancer patients; patients, 40-100 mg oral daily dose) was “mild” and the “stabilizes progression of the cancer (patients with SD)” value (cancer patients; seven patients, 40-100 mg oral daily dose) was “three of the seven patients”. The “share of tumor samples from patients in which Compound 1 is effective” value ([4]; 30 tumor samples, mini-PDX, 13/30) was 43%, the “Tumor cell growth inhibition (TCGI)” value ([4]; FIG. 1, initial screen of 4 samples, 7 days oral administration, compared to placebo) was “effective TCGI” and the “Efficacy (P ≤ 0.05)” value [5] was “Non-effective; also recorded: effective”.
